According to US20220348564A1, “PHENYL-[1,3]DIOXOLO[4,5-C]PYRIDINYL-PHENYL-, PHENYL-[1,3]DIOXOLO[4,5-C]PYRIDINYL-HETEROARYL-, OR PHENYL-(1,3)DIOXO[4,5-C]PYRIDINYL-PIPERIDINYL-METHYL-OXETANYLMETHYL-1H-BENZO[D]IMIDAZOLE-CARBOXYLIC ACID DERIVATIVES AND METHODS OF USING SAME” (Eccogene (Shanghai) Co., Ltd., priority 2021, published 2022):
pEC50: −log10 of the molar value. Like-named read-outs stand apart in the source and are kept apart here.

Tests used:
[1] = target: T1, human GLP-1 (Homo sapiens, UniProt P43220); assay: h-GLP-1 activity assay (Cisbio cAMP Gs dynamic kit, HTRF); assay type: cell-based; details: HEK293 cells with stable expression of human GLP-1, relative EC50, 10 nM human GLP-1 = 100% response
T1 construct: expressed in transfected cells
T1 sequence (P43220 24-463): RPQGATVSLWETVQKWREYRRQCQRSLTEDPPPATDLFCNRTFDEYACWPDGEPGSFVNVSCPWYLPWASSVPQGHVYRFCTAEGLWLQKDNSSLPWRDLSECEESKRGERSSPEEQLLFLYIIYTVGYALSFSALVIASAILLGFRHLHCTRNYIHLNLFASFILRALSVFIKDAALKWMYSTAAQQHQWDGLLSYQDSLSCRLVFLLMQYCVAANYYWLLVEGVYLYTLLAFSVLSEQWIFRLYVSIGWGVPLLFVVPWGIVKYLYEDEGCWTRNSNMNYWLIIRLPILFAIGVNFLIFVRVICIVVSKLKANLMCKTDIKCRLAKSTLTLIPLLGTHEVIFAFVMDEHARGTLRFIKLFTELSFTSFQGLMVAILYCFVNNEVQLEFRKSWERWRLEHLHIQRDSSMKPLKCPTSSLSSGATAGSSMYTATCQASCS
Description: Human GLP-1 agonizing activity was detected in HEK293 cells with stable expression of human GLP-1 by Cisbio cAMP Gs dynamic kit (Catalog #62AM4PEC) according to manufacturer's protocol. Briefly, cells were collected and resuspended in assay buffer containing 0.1% BSA and 0.5 mM of IBMX at concentration to 2.5×10^5 cells/mL. Two μL 5× compound solution and 8 μL cell suspension were added to each well of low-volume 384 white assay plate. After 30 min incubation at 37° C., 5 μL cAMP-d2 working solution and 5 μL anti-cAMP antibody-cryptate were added to each well, and incubate at room temperature for 1 hr. Series dilution of cAMP was used as standard. Human GLP-1 (7-37) was used as positive control and 10 nM human GLP-1 was set as 100% response. HTRF signals were read at 665 and 615 nm with EnVision plate reader and calculated cAMP concentration by intrapolation to the standard curve. The EC50 value of the tested compounds was calculated by fitting the dose response curve using a 4-parameter non-linear regression routine and relative EC50 was presented in Table S.

[2] = Liver microsome stability, human; assay type: in vitro ADME; details: human liver microsomes, NADPH, 37° C.
Description: (§1) Compounds of the present application was incubated with human or rat liver microsomes in the presence of NADPH at 37° C. The concentration of compound at pre-incubation and after 30 min incubation was quantified by LC-MS. The percentage of remaining compound was then calculated and indicative of microsome stability of each compound.

[3] = Liver microsome stability, rat; assay type: in vitro ADME; details: rat liver microsomes, NADPH, 37° C.
Description: as §1

[4] = Pharmacokinetics in fasted SD rats (PO and IV); assay type: in vivo; details: rat, plasma; for clearance: read-out: IV parameters CL; for bioavailability: read-out: PO parameters F (%)
Description: Compounds of the present application were formulated in 0.50% MC, and administered via oral gavage (PO) at the dosages of 5 or 10 mg per kilogram body weight, or formulated in 5% DMSO:15% Solutol 80% (SBECD), and administered via intravenous injection (IV) at the dosages of 1 mg per kilogram body weight, in fasted SD rats. Plasma samples were collected at 0.25, 0.5, 1, 2, 4, 6, 8, and 24 hours post dosing (PO); and were collected at 0.083, 0.25, 0.5, 1, 2, 4, 6, 8, and 24 hours post dosing (IV). Compound concentration was determined by LC-MS and pharmacokinetics parameters were calculated by WinNonlin 8.2 using Non-Compartmental Analysis model.

[5] = IV 1 mg/kg, read-out: IV parameters AUC0-inf
[6] = PO 5 mg/kg, 0.50% MC, read-out: PO parameters AUC0-inf

SMILES | pEC50 [1] | Human (% remaining @ 30 min) [2] [%] | Rat (% remaining @ 30 min) [3] [%] | AUC(0-inf) [4, 5] [ng·h/mL] | clearance ([4]; IV 1 mg/kg) [mL/min/kg] | AUC(0-inf) [4, 6] [ng·h/mL] | bioavailability ([4]; PO 5 mg/kg) [%]
O=C(O)c1ccc2nc(C[C@H]3CC[C@H](c4cccc(OCc5ccc(Cl)cc5F)n4)CO3)n(Cc3cncs3)c2c1 (single isomer, unassigned) [Compound 28] | > 7.70 | – | – | 588 | 28.8 | 526 | 21.7
C[C@]1(c2ccc(Cl)cc2F)Oc2cccc(-c3ccc(Cc4nc5ccc(C(=O)O)cc5n4C[C@@H]4CCO4)cc3)c2O1 (single isomer, unassigned) [Compound 19] | > 7.70 | – | – | 3380 | 5.5 | 4410 | 26.1
O=C(O)c1ccc2nc(CN3CCC(c4cccc5c4CC(c4ccc(Cl)cn4)O5)CC3)n(C[C@@H]3CCO3)c2c1 (mixture of isomers) [Compound 27, 2-((4-(2-(5-chloropyridin-2-yl)-2,3-dihydrobenzofuran-4-yl)piperidin-1-yl)methyl)-1-(((S)-oxetan-2-yl)methyl)-1H-benzo[d]imidazole-6-carboxylic acid] | < 7.00 | – | – | – | – | – | –
N#Cc1ccc(COc2cccc(C34CCC(Cc5nc6ccc(C(=O)O)cc6n5C[C@@H]5CCO5)(CC3)OC4)n2)c(F)c1 [Compound 36, (S)-2-((4-(6-((4-cyano-2-fluorobenzyl)oxy)pyridin-2-yl)-2-oxabicyclo[2.2.2]octan-1-yl)methyl)-1-(oxetan-2-ylmethyl)-1H-benzo[d]imidazole-6-carboxylic acid] | < 7.00 | – | – | – | – | – | –

Second part, the molecule after the results:

pEC50 [1] | Human (% remaining @ 30 min) [2] [%] | Rat (% remaining @ 30 min) [3] [%] | AUC(0-inf) [4, 5] [ng·h/mL] | clearance ([4]; IV 1 mg/kg) [mL/min/kg] | AUC(0-inf) [4, 6] [ng·h/mL] | bioavailability ([4]; PO 5 mg/kg) [%] | SMILES
> 7.70 | >75 | >75 | – | – | – | – | C[C@@]1(c2ccc(Cl)cn2)Oc2cccc(C3=CC[C@H](Cc4nc5ccc(C(=O)O)cc5n4C[C@@H]4CCO4)OC3)c2O1 (single isomer, unassigned) [Compound 78]
> 7.70 | >75 | >75 | – | – | – | – | C[C@]1(c2ccc(Cl)cn2)Oc2cccc(C3=CC[C@H](Cc4nc5c(F)cc(C(=O)O)cc5n4C[C@@H]4CCO4)OC3)c2O1 (single isomer, unassigned) [Compound 118]
> 7.70 | >75 | >75 | – | – | – | – | C[C@]1(c2ccc(Cl)cc2F)Oc2cccc(C3=CC[C@@H](Cc4nc5ccc(C(=O)O)nc5n4C[C@@H]4CCO4)OC3)c2O1 (single isomer, unassigned) [Compound 108]
> 7.70 | >75 | >75 | – | – | – | – | C[C@]1(c2ccc(Cl)cc2F)Oc2cccc(C3=CC[C@@H](Cc4nc5c(F)cc(C(=O)O)cc5n4C[C@@H]4CCO4)OC3)c2O1 (single isomer, unassigned) [Compound 110]
> 7.70 | >75 | >75 | 1760 | 9.7 | 3190 | 36.3 | C[C@@]1(c2ccc(Cl)cc2F)Oc2cccc(C3=CC[C@@H](Cc4nc5ccc(C(=O)O)cc5n4C[C@@H]4CCO4)OC3)c2O1 (single isomer, unassigned) [Compound 100]
< 7.00 | – | – | – | – | – | – | C[C@@]1(c2ccc(Cl)cn2)Oc2cccc(-c3ccc(Cc4nc5ccc(C(=O)O)cc5n4C[C@@H]4CCO4)cc3)c2O1 (single isomer, unassigned) [Compound 41]
7.00 to 7.70 | – | – | – | – | – | – | C[C@]1(c2ccc(Cl)cn2)Oc2cccc(C3=CC[C@@H](Cc4nc5c(F)cc(C(=O)O)cc5n4C[C@@H]4CCO4)OC3)c2O1 (single isomer, unassigned) [Compound 119]
